Results taken from patent publication US20240293563A1, “GLP-1 RECEPTOR LIGAND MOIETY CONJUGATED OLIGONUCLEOTIDES AND USES THEREOF” (priority 2017, published 2024).
Square brackets hold non-standard residues; d marks the D form. Side chains are listed from the residue outwards. Ends that are not written are not given here. 5'‑hexylamino oligonucleotide ISIS 786434 = not defined here; Aib = CC(C)(N)C(=O)O; Mpa = O=C(O)CCS

Assays:
MALAT1 mRNA [1] = experiment: Dose dependent antisense inhibition of MALAT1 in hGLP1R-HEK cells; format: cell-based, human; conditions: approximately 24 hrs, qRT-PCR normalized to RPLP0
Procedure: The hGLP1R-HEK cell line was generated by expressing hGLP1R in Flp-IN™ 293 cells. Cultured hGLP1R-HEK cells were seeded at a density 30,000 cells per well in 96 well plates and saline, 100 nM or 10 μM of unconjugated parent antisense oligonucleotide ISIS 556089 targeted to MALAT1 described above or ISIS 776102 (nucleobase sequence: […]) (SEQ ID NO: 64) targeted to FOXO1, or corresponding GLP-1 peptide conjugated antisense oligonucleotides (ISIS 816385 targeted to MALAT1 described above or ION 913193 targeted to FOXO1 described above) for approximately 24 hrs. After the treatment period, cells were harvested, the mRNA isolated and adjusted to total RNA content as measured by nanadrop UV-Vis spectrophotometer. MALAT1 or FOXO1 mRNA levels were measured by quantitative real-time PCR and normalized to the mRNA levels of the house keeping gene (RPLP0) in the same samples. Human MALAT1 mRNA levels were measured using gene expression assays HS00273907 and FOXO1 mRNA levels were measured using assay Hs01054576 (Applied Biosystems). The mRNA level of the house keeping gene RPLP0 was measured using a primer probe set with forward sequence […] CAT […] (SEQ ID NO: 66), reverse sequence […] (SEQ ID NO: 67). […]
After the treatment period cells were harvested, mRNA isolated and MALAT1 mRNA levels measured by quantitative real-time PCR using the primer probe set as described herein (Example 7). […]

MALAT1 mRNA [2] = experiment: Dose dependent antisense inhibition of MALAT1 in WT HEK293 cells; format: cell-based, human; conditions: approximately 24 hrs, qRT-PCR normalized to RPLP0
MALAT1 [3] = experiment: MALAT1 expression in pancreas by in situ hybridization (RNAscope); format: in vivo, mouse; conditions: 2 μmol/kg, 72 hrs after last dose
Source text: Female C57BL/6Crl mice were assigned to five treatment groups. […] All animals were sacrificed approximately 72 hrs after last dose, and pancreas harvested for ex vivo analysis of uptake of antisense oligonucleotides by immunohistochemistry.
Female C57BL/6Crl mice were assigned to five treatment groups as described herein (Example 11) All animals were sacrificed approximately 72 hrs after last dose, and pancreas harvested for ex vivo analysis of MALAT1 expression by in situ hybridization.
The in situ mRNA amplification and labelling process was performed on the Ventana Discovery ULTRA, an Automated ISH platform(Ventana Medical System, Inc) using the RNAscope® VS Assay based on Advanced Cell Diagnostics (ACD). Customized probes were obtained from ACD for the detection of MALAT1 mRNA, and various parameters were tested to optimize the novel RNAscope method for ISH. The signal was amplified using multiple steps, followed by labeled probes and detected using the RNAscope® 2.5 VS Reagent Kit-RED. Stained slides were analyzed under a standard bright-field microscope.

MALAT1 [4] = experiment: MALAT1 expression in liver by in situ hybridization; format: in vivo, mouse
Procedure: Tissues were prepared as described herein, Example 11. The in situ mRNA amplification and labelling process was performed on the Ventana Discovery ULTRA, an Automated ISH platform(Ventana Medical System, Inc) using the RNAscope® VS Assay based on Advanced Cell Diagnostics (ACD). Customized probes were obtained from ACD for the detection of MALAT1 mRNA, and various parameters were tested to optimize the novel RNAscope method for ISH. The signal was amplified using multiple steps, followed by labeled probes and detected using the RNAscope® 2.5 VS Reagent Kit-RED. […] All animals were sacrificed approximately 72 hrs after last, and liver harvested for ex vivo analysis of MALAT1 expression by in situ hybridization. Tissues were prepared, and in situ hybridization performed, as described herein, Example 12.

MALAT1 [5] = experiment: MALAT1 in situ hybridization in beta islet cells after i.v. GLP-1 ASO conjugates with various linkers; format: in vivo, mouse; conditions: male C57BL/6 mice; intravenous 0.6 μmol/kg/week once a week for three weeks; 72 hours after final injection
MALAT-1 = experiment: Dose-dependent reduction of MALAT-1 expression in LVX-GLP1R cells; format: cell-based, human
Procedure: HEK cells stably expressing FLAG-tagged GLP1R were generated by infecting HEK 293 cells with FLAG-tagged GLP1R containing lentivirus produced by transfection of 293T cells with pLVX-IRES-Puro (Clontech Laboratories Inc., Mountainview, CA) harboring the FLAG-GLP1R insert. Infected cells were selected with puromycin (2 μg/ml) and then analyzed for receptor expression by western blot and immunofluorescence. Cultured GLP1R cells were plated at a density of 10,000 cells per well and treated with 0.3, 1, 3, 9, 27, 82, 247, 741, 2,222, 6,667, and 20,000 nM modified oligonucleotide for approximately 24 hours. After the treatment period, total RNA was prepared using an RNeasy mini kit (Qiagen, Valencia, CA, USA) and qRT-PCR was performed using the primer probe set RTS2739 (forward sequence: […] (SEQ ID NO: 74), reverse sequence: […] (SEQ ID NO: 75), probe sequence: […] (SEQ ID NO: 76). Briefly, ˜50 ng total RNA in 5 d water was mixed with 0.3 d primer probe sets containing forward and reverse primers (10 μM of each) and fluorescently labeled probe (3 μM), 0.3 W RT enzyme mix (Qiagen), 4.4 d RNase-free water, and 10 d of 2×PCR reaction buffer in a 20 d reaction. Reverse transcription was performed at 48° C. for 10 min, 40 cycles of PCR were conducted at 94° C. for 20 s, and 60° C. for 20 s within each cycle, using StepOne Plus RT-PCR system (Applied Biosystems, Phoenix, AZ, USA). The mRNA levels were normalized to the amount of total RNA present in each reaction as determined by Ribogreen assay (Life Technologies) and normalized to the saline control (100% expression).

MALAT1 [6] = experiment: Effect of peptide composition and attachment point on peptide-conjugated ASO activity in LVX-GLP1R cells; format: cell-based, human; conditions: 7 doses in a 4-fold dilution series, MALAT1 RNA
MALAT1 [7] = experiment: MALAT1 inhibition in isolated islets 72 hrs after single s.c. dose, various linkers; format: in vivo, mouse
MALAT-1 mRNA = experiment: Dose-response inhibition of MALAT-1 mRNA in pancreatic islets 72 hrs after single s.c. dose, various linkers; format: in vivo, mouse; conditions: 0.01 μmol/kg single subcutaneous injection, relative to PBS

ISIS 816385 (H[Aib]EGTFTSDVSSYLEEQAAKEFIAWLVKGGPSSGAPPPSC([Mpa-5'‑hexylamino oligonucleotide ISIS 786434])-NH2; reading uncertain; also: Cys40 joined to the linker by a disulfide)
IC50 (MALAT1 mRNA [1]): 20 nM
IC50 (MALAT1 mRNA [2]): 2210 nM
MALAT1 expression in the pancreatic islet of Langerhans (MALAT1 [3]; subcutaneous or intravenous (ISIS 556089 subcutaneous only)): reduced
MALAT1 expression in the exocrine tissue of pancreas (MALAT1 [3]; subcutaneous or intravenous): not in the exocrine tissue
Liver MALAT1 expression (MALAT1 [4]; 2 μmol/kg intravenous, compared to vehicle control): reduced compared to vehicle control
Liver MALAT1 expression in hepatocytes (MALAT1 [4]; 2 μmol/kg subcutaneous, compared with ISIS 556089): reduced in hepatocytes of animals treated with ISIS 816385 to a greater extent
MALAT1 expression in beta islet cells compared to saline control (in situ hybridization) (MALAT1 [5]): reduced
dose-dependent inhibition of MALAT-1 (MALAT-1; GLP1R HEK cells, GLP-1 complexed ASOs with or without a TCA linker versus parent): increased dose-dependent inhibition
IC50 (MALAT-1; approximately 24 hours, read-out: IC50 (MALAT-1 expression in GLP1R HEK cells)): 260 nM
IC50 (MALAT1 [6]): 350 nM
In vivo ED50 (MALAT1 [7]; MALAT1 in isolated islets, single subcutaneous injection): 0.0088 µmol/kg
% MALAT1 inhibition (MALAT1 [7]; isolated islets, female C57BL/6Crl mice, single subcutaneous injection of 0.01 μmol/kg): 41%
% inhibition of MALAT-1 mRNA in Pancreatic Islets (MALAT-1 mRNA): 52%
